Earlier results on one compound are cited in patent US11980624B2, “Methods for administering compositions comprising hydroxytyrosol and boswellic acid” (Nutramax Laboratories, Inc., priority 2016, dated 2024).

For the data set the following is noted: single oral 2.5 mg/kg dose, human subjects.

Take `OCCc1ccc(O)c(O)c1` [hydroxytyrosol, 4-(2-Hydroxyethyl)-1,2-benzenediol]: the peak plasma concentration is 1.11 ± 0.20 µmol/L.
